Test results reported in ChEMBL document CHEMBL1201862, “PubChem BioAssay data set” (2004).
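Five concentrations, 48 hours, 96-well plates. Abbreviation: GI50, concentration required for 50% inhibition of growth.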 Activity calls are given as the source filed them. Cut-off read from the data, not from the text of the source: active = GI50 up to about 1.1 µM and inactive = higher.

Legend:
Assay in all cases: NCI-60 cell line screen, 48 h
786-0 = tested on: 786-0
ACHN = tested on: ACHN
A549 = tested on: A549
HOP-92 = tested on: HOP-92
MDA-MB-435 = tested on: MDA-MB-435
HL-60 = tested on: HL-60
SK-MEL-5 = tested on: SK-MEL-5
SF-539 = tested on: SF-539
SNB-75 = tested on: SNB-75
NCI-H226 = tested on: NCI-H226
NCI/ADR-RES = tested on: NCI/ADR-RES
DU-145 = tested on: DU-145
Malme-3M = tested on: Malme-3M
SK-MEL-28 = tested on: SK-MEL-28
SNB-19 = tested on: SNB-19
SN12C = tested on: SN12C
MDA-N = tested on: MDA-N
UACC-62 = tested on: UACC-62
SK-OV-3 = tested on: SK-OV-3
K562 = tested on: K562

Row | Structure (SMILES) | GI50 (786-0) | GI50 (ACHN) | GI50 (A549) | GI50 (HOP-92) | GI50 (MDA-MB-435) | GI50 (HL-60) | GI50 (SK-MEL-5) | GI50 (SF-539) | GI50 (SNB-75) | GI50 (NCI-H226) | GI50 (NCI/ADR-RES) | GI50 (DU-145) | GI50 (Malme-3M) | GI50 (SK-MEL-28) | GI50 (SNB-19) | GI50 (SN12C) | GI50 (MDA-N) | GI50 (UACC-62) | GI50 (SK-OV-3) | GI50 (K562)
1 | Cn1c2ccccc2n2c(=O)c(-c3ccc(O)cc3)nnc12 | 40.2 µM (inactive) | 70 µM (inactive) | > 100 µM (inactive) | > 100 µM (inactive) | > 100 µM (inactive) | > 100 µM (inactive) | > 100 µM (inactive) | 35 µM (inactive) | 25.8 µM (inactive) | 46.6 µM (inactive) | > 100 µM (inactive) | > 100 µM (inactive) | > 100 µM (inactive) | > 100 µM (inactive) | 80.4 µM (inactive) | > 100 µM (inactive) | – | – | – | –
2 | CC1CCCCNC1=S (configuration not stated) | – | > 10 µM (inactive) | > 10 µM (inactive) | > 10 µM (inactive) | > 10 µM (inactive) | > 10 µM (inactive) | > 10 µM (inactive) | > 10 µM (inactive) | > 10 µM (inactive) | > 10 µM (inactive) | – | > 10 µM (inactive) | > 10 µM (inactive) | > 10 µM (inactive) | > 10 µM (inactive) | > 10 µM (inactive) | > 10 µM (inactive) | > 10 µM (inactive) | > 10 µM (inactive) | > 10 µM (inactive)
3 | Cn1c2ccccc2n2c(=O)c3cc([N+](=O)[O-])ccc3c(C#N)c12 | 22.3 µM (inactive) | 75.3 µM (inactive) | > 100 µM (inactive) | – | > 100 µM (inactive) | > 100 µM (inactive) | > 100 µM (inactive) | 50.4 µM (inactive) | 56.2 µM (inactive) | > 100 µM (inactive) | > 100 µM (inactive) | > 100 µM (inactive) | – | > 100 µM (inactive) | > 100 µM (inactive) | – | > 100 µM (inactive) | > 100 µM (inactive) | > 100 µM (inactive) | > 100 µM (inactive)
4 | CC(=O)NC1C(OCc2ccccc2)OC(CO)C(O)C1OC(C)C(=O)N[C@@H](C)C(=O)N[C@H](CCC(=O)OCCNc1c2ccccc2nc2cccc([N+](=O)[O-])c12)C(N)=O (some centres not stated) | 0.000328 µM (active) | 0.00145 µM (active) | 0.00146 µM (active) | 0.00178 µM (active) | – | 0.00647 µM (active) | 0.00239 µM (active) | 0.00313 µM (active) | 0.0114 µM (active) | 0.00548 µM (active) | – | – | 0.00158 µM (active) | 0.00441 µM (active) | 0.000187 µM (active) | 0.00531 µM (active) | – | 0.000451 µM (active) | 0.00711 µM (active) | 0.00094 µM (active)
5 | O=C1/C(=C/c2cccc([N+](=O)[O-])c2)N=C(c2ccccc2)N1c1nc2ccc(Sc3ccccc3)cc2[nH]1 | 60.1 µM (inactive) | > 100 µM (inactive) | 55.2 µM (inactive) | 71.4 µM (inactive) | 13.3 µM (inactive) | – | 28.8 µM (inactive) | 57.4 µM (inactive) | 52.4 µM (inactive) | > 100 µM (inactive) | 29.3 µM (inactive) | – | 63.1 µM (inactive) | 84.7 µM (inactive) | 80 µM (inactive) | 60 µM (inactive) | 14.9 µM (inactive) | 36.1 µM (inactive) | 34.4 µM (inactive) | 30.9 µM (inactive)
6 | NC(CCCCNC(=O)C(Cc1ccccc1)NC(=O)OCc1ccccc1)C(=O)NC(CCCCNC(=O)C(Cc1ccccc1)NC(=O)OCc1ccccc1)C(=O)NC(CCCCNC(=O)C(Cc1ccccc1)NC(=O)OCc1ccccc1)C(=O)NC(CCCCNC(=O)C(Cc1ccccc1)NC(=O)OCc1ccccc1)C(=O)NC(CCCCNC(=O)C(Cc1ccccc1)NC(=O)OCc1ccccc1)C(=O)NC(CCCCNC(=O)C(Cc1ccccc1)NC(=O)OCc1ccccc1)C(=O)O (configuration not stated) | > 100 µM (inactive) | > 100 µM (inactive) | > 100 µM (inactive) | – | > 100 µM (inactive) | > 100 µM (inactive) | > 100 µM (inactive) | – | > 100 µM (inactive) | > 100 µM (inactive) | – | > 100 µM (inactive) | > 100 µM (inactive) | > 100 µM (inactive) | > 100 µM (inactive) | > 100 µM (inactive) | > 100 µM (inactive) | > 100 µM (inactive) | – | > 100 µM (inactive)
7 | O=P(O)(Cc1ccccc1)c1ccccc1-c1ccccc1 | > 100 µM (inactive) | > 100 µM (inactive) | 56 µM (inactive) | – | – | > 100 µM (inactive) | > 100 µM (inactive) | > 100 µM (inactive) | > 100 µM (inactive) | > 100 µM (inactive) | > 100 µM (inactive) | > 100 µM (inactive) | > 100 µM (inactive) | > 100 µM (inactive) | > 100 µM (inactive) | > 100 µM (inactive) | > 100 µM (inactive) | > 100 µM (inactive) | > 100 µM (inactive) | > 100 µM (inactive)
8 | CSc1nc2c(ncn2C2OC(CO)C(O)C(O)C2O)c(=O)n1C (configuration not stated) | – | – | > 100 µM (inactive) | > 100 µM (inactive) | – | > 100 µM (inactive) | > 100 µM (inactive) | > 100 µM (inactive) | > 100 µM (inactive) | > 100 µM (inactive) | > 100 µM (inactive) | – | > 100 µM (inactive) | > 100 µM (inactive) | > 100 µM (inactive) | > 100 µM (inactive) | – | > 100 µM (inactive) | > 100 µM (inactive) | > 100 µM (inactive)
9 | NNC(=O)c1c(SCc2ccccc2)nc2c3ccccc3ccn12 | – | 27.2 µM (inactive) | 23.4 µM (inactive) | 17 µM (inactive) | 17.1 µM (inactive) | 9.08 µM (inactive) | 6.32 µM (inactive) | 15.9 µM (inactive) | – | 22.1 µM (inactive) | 26.5 µM (inactive) | 23.9 µM (inactive) | – | 18.1 µM (inactive) | 36.6 µM (inactive) | 17 µM (inactive) | – | 10.2 µM (inactive) | 27.1 µM (inactive) | 14.7 µM (inactive)
10 | CC(C)=CC1CC(=[N+]=[N-])C(=O)C1(C)C (configuration not stated) | > 100 µM (inactive) | > 100 µM (inactive) | > 100 µM (inactive) | > 80.7 µM (inactive) | – | > 100 µM (inactive) | > 100 µM (inactive) | > 100 µM (inactive) | > 46.7 µM (inactive) | > 100 µM (inactive) | – | – | > 100 µM (inactive) | > 100 µM (inactive) | > 100 µM (inactive) | > 100 µM (inactive) | – | > 100 µM (inactive) | > 100 µM (inactive) | > 71.1 µM (inactive)
11 | CCC1CN(C(=O)c2ccccc2)C(Cc2c[nH]c3ccccc23)C(=O)C1CC(=O)OC (configuration not stated) | – | > 100 µM (inactive) | – | > 100 µM (inactive) | > 100 µM (inactive) | 31.6 µM (inactive) | 72.8 µM (inactive) | > 100 µM (inactive) | 88.3 µM (inactive) | > 100 µM (inactive) | 86.7 µM (inactive) | > 100 µM (inactive) | 55.6 µM (inactive) | > 100 µM (inactive) | – | > 100 µM (inactive) | – | 32.1 µM (inactive) | > 100 µM (inactive) | 47.8 µM (inactive)
12 | C#CCNC(CS)C(=O)O (configuration not stated) | > 100 µM (inactive) | > 100 µM (inactive) | > 100 µM (inactive) | > 100 µM (inactive) | > 100 µM (inactive) | > 100 µM (inactive) | > 100 µM (inactive) | – | > 100 µM (inactive) | > 100 µM (inactive) | > 100 µM (inactive) | > 100 µM (inactive) | > 100 µM (inactive) | > 100 µM (inactive) | > 100 µM (inactive) | – | – | > 100 µM (inactive) | > 100 µM (inactive) | > 100 µM (inactive)
13 | CN1CCOC1(C)CO (configuration not stated) | > 100 µM (inactive) | > 100 µM (inactive) | > 100 µM (inactive) | > 100 µM (inactive) | > 100 µM (inactive) | 50.8 µM (inactive) | > 100 µM (inactive) | > 100 µM (inactive) | 28.6 µM (inactive) | > 100 µM (inactive) | > 100 µM (inactive) | – | > 100 µM (inactive) | – | > 100 µM (inactive) | – | > 100 µM (inactive) | > 100 µM (inactive) | > 100 µM (inactive) | > 100 µM (inactive)
14 | O=[N+]([O-])c1ccc(/C=C/c2ccc(/N=N/c3ccc(/C=C/c4ccc([N+](=O)[O-])cc4S(=O)(=O)O)c(S(=O)(=O)O)c3)cc2S(=O)(=O)O)c(S(=O)(=O)O)c1 | – | – | > 100 µM (inactive) | > 53.1 µM (inactive) | – | > 100 µM (inactive) | > 100 µM (inactive) | > 100 µM (inactive) | 61.8 µM (inactive) | > 100 µM (inactive) | > 100 µM (inactive) | – | > 100 µM (inactive) | > 100 µM (inactive) | – | > 100 µM (inactive) | – | > 100 µM (inactive) | > 100 µM (inactive) | > 100 µM (inactive)
15 | O=CN/C=C/c1ccccc1O | > 100 µM (inactive) | > 100 µM (inactive) | > 100 µM (inactive) | > 100 µM (inactive) | – | > 86.7 µM (inactive) | > 100 µM (inactive) | > 100 µM (inactive) | > 100 µM (inactive) | > 100 µM (inactive) | – | > 100 µM (inactive) | > 100 µM (inactive) | > 100 µM (inactive) | > 100 µM (inactive) | > 100 µM (inactive) | – | > 100 µM (inactive) | > 100 µM (inactive) | > 31.6 µM (inactive)
16 | Nc1nc2[nH]c(=O)cnc2c(=O)[nH]1 [ISOXANTHOPTERIN] | – | – | > 125 µM (inactive) | > 125 µM (inactive) | – | > 125 µM (inactive) | > 125 µM (inactive) | > 125 µM (inactive) | > 125 µM (inactive) | > 125 µM (inactive) | > 125 µM (inactive) | – | > 108 µM (inactive) | > 125 µM (inactive) | > 125 µM (inactive) | > 125 µM (inactive) | – | > 125 µM (inactive) | > 125 µM (inactive) | > 125 µM (inactive)
